A word on the IC50: it is the concentration needed to halve the response being measured.

The subject of the experiment is MMP1 expression by activated synovial fibroblasts (RASFs). As to the kind of experiment: 'MMP assay': complex trigger-induced MMP1 expression by synovial fibroblasts (MMP1 ELISA). It is filed as cell-based. To be noted: Homo sapiens, Fibroblast; RASFs, complex trigger, 48 hrs; read-out: MMP1 IC50. As to the method:
A 384-well format ELISA for measurement of MMP1 is developed. Various primary antibodies are tested, as well as various ELISA protocols. The following protocol is developed and validated to measure MMP1 levels in SF supernatant in 384 well plates: white Lumitrac 600 384 well plates (Greiner) are coated with 2 μg/mL anti-MMP1 antibody MAB1346 (Chemicon). The antibody is diluted in buffer 40 (1.21 g Tris base (Sigma), 0.58 g NaCl (Calbiochem) and 5 ml 10% NaN3 (Sigma) in 1 L milliQ water and adjusted to pH 8.5). After overnight incubation at 4° C., plates are washed with PBS (80 g NaCl, 2 g KCl (Sigma), 11.5 g Na2HPO4.7H2O and 2 g KH2PO4 in 10 L milliQ; pH 7.4) and blocked with 100 μL/well Casein buffer (2% Casein (VWR International) in PBS). Next day, casein buffer is removed from ELISA plates and replaced by 50 μL/well EC buffer (4 g casein, 2.13 g Na2HPO4 (Sigma), 2 g bovine albumin (Sigma), 0.69 g NaH2PO4.H2O (Sigma), 0.5 g CHAPS (Roche), 23.3 g NaCl, 4 ml 0,5 M EDTA pH 8 (Invitrogen), 5 ml 10% NaN3 in 1 L milliQ and adjusted to pH 7.0). 0.25 mM DTT (Sigma) is added to the thawed samples plates. After removal of the EC buffer, 20 μL of sample is transferred to the ELISA plates. After overnight incubation at 4° C. plates are washed twice with PBS and once with PBST (PBS with 0.05% Tween-20 (Sigma)) and incubated with 35 μL/well biotinylated anti-MMP1 antibody solution (R&D). This secondary antibody is diluted in buffer C (0.82 g NaH2PO4.H2O, 4.82 g Na2HPO4, 46.6 g NaCl, 20 g bovine albumin and 4 mL 0,5M EDTA pH 8 in 2 L milliQ and adjusted to pH 7.0) at a concentration of 5 μg/mL. After 2 h of incubation at RT, plates are washed as described above and incubated with 50 μL/well streptavidin-HRP conjugate (Biosource). Streptavidin-HRP conjugate is diluted in buffer C at a concentration of 0.25 μg/mL. After 45 min, plates are washed as described above and incubated for 5 min with 50 μL/well BM Chem ELISA Substrate (Roche). Readout is performed on the Luminoscan Ascent Luminometer (Labsystems) with an integration time of 200 msec or with an Envision reader (Perkin Elmer).
The increase of MMP1 expression by SFs upon treatment with cytokines relevant in the field of RA (TNF-α, IL1β and OSM) or a combination thereof is shown in FIG. 2 as white bars. For this experiment, SFs are seeded in 96 well plates, 3,000 cells/well. 24 h later, the medium is changed to M199 medium supplemented with 1% FBS. One day after the medium change, cytokines or combinations thereof are added to the cultures, each cytokine being added to a final concentration of 25 ng/mL. 72 h after cytokine addition, the supernatant is collected and processed in the MMP1 ELISA as described in the protocol given above. In parallel with this experiment, SFs are triggered, using the same protocol, with the supernatant of THP1 cells (2-fold diluted in M199+1% FBS) treated with the same cytokines or combinations of cytokines for 48 h in M199 medium+1% FBS. The induction of the MMP1 expression by SFs triggered with the supernatants of TNF-α-treated THP1 cells is stronger (>4.5 fold induction) as compared to the SFs triggered with recombinant TNF-α alone (3-fold induction) and almost equals the 5-fold induction obtained by a mixture of 3 purified cytokines (TNF-α, IL1βb, OSM). […] As the role of TNF-α in the RA pathogenesis is validated (TNF-α-blockers such as Infliximab and Etanercept show some efficacy in the treatment of RA patients) and the THP-1 cells are representative for monocytes/macrophages present in the joint of RA patients, the TNF-α-based trigger mixture prepared by contacting THP-1 cells with TNF-α will contain factors present in the joints of RA patients and subsequently is relevant to RA. This TNF-α-based complex trigger, further referred to as the ‘complex trigger’, will further be used as basis for the ‘MMP assay’. […]
For orientation: ELISA stands for enzyme-linked immunosorbent assay.
For `CC(C)(C)N1C[C@@H]2C[C@H]1CN2c1ccc(Nc2ncc(-c3coc(C(N)=O)c3)n3ncnc23)cc1` [Compound 3, 4-{8-[4-((1S,4S)-5-tert-Butyl-2,5-diaza-bicyclo[2.2.1]hept-2-yl)-phenylamino]-[1,2,4]triazolo[1,5-a]pyrazin-5-yl}-furan-2-carboxamide], the IC50 was above 1000 nM. With `CC(C)N1C[C@@H]2C[C@H]1CN2c1ccc(Nc2ncc(-c3coc(C(N)=O)c3)n3ccnc23)cc1` [Compound 4, 4-{8-[4-((1S,4S)-5-Isopropyl-2,5-diaza-bicyclo[2.2.1]hept-2-yl)-phenylamino]-imidazo[1,2-a]pyrazin-5-yl}-furan-2-carboxamide] the figure was above 1000 nM; with `CC(C)N1C[C@@H]2C[C@H]1CN2c1ccc(Nc2ncc(-c3cc(C(N)=O)n[nH]3)n3ncnc23)cc1` [Compound 5, 5-{8-(4-((1S,4S)-5-isopropyl-2,5-diazabicyclo[2.2.1]heptan-2-yl)phenyl-amino)-[1,2,4]triazolo[1,5-a]pyrazin-5-yl}-1H-pyrazole-3-carboxamide], 1 to 1000 nM. Turning to `CC(C)(C)N1C[C@@H]2C[C@H]1CN2c1ccc(Nc2ncc(-c3coc(C(N)=O)c3)n3ccnc23)cc1` [Compound 6], the IC50 is above 1000 nM.

For the molecule `CC(C)N1C[C@@H]2C[C@H]1CN2c1ccc(Nc2ncc(-c3cc[nH]c(=O)c3)n3ccnc23)cc1` [Compound 8, 4-{8-(4-((1S,4S)-5-isopropyl-2,5-diazabicyclo[2.2.1]heptan-2-yl)phenyl-amino)imidazo[1,2-a]pyrazin-5-yl}-1H-pyridin-2-one], the IC50 is 1 to 1000 nM. For the molecule `CC(C)N1CC2CCC1CN2c1ccc(Nc2ncc(-c3coc(C(N)=O)c3)n3ncnc23)cc1` (centres unmarked) [Compound 9, 4-{8-(4-(5-isopropyl-2,5-diazabicyclo[2.2.2]octan-2-yl)phenylamino)[1,2,4]-triazolo[1,5-a]pyrazin-5-yl}-furan-2-carboxamide], the IC50 was 1 to 1000 nM. With `CC(C)N1CC2CCC(C1)N2c1ccc(Nc2ncc(-c3coc(C(N)=O)c3)n3ccnc23)cc1` [Compound 11, 4-{8-(4-(3-isopropyl-3,8-diazabicyclo[3.2.1]octan-8-yl)phenylamino)-imidazo[1,2-a]pyrazin-5-yl}-furan-2-carboxamide] the figure was above 1000 nM; with `CC(C)N1C2CCC1CN(c1ccc(Nc3ncc(-c4coc(C(N)=O)c4)n4ncnc34)cc1)C2` [Compound 12, 4-{8-(4-(8-isopropyl-3,8-diazabicyclo[3.2.1]octan-3-yl)phenylamino)[1,2,4]-triazolo[1,5-a]pyrazin-5-yl}-furan-2-carboxamide], above 1000 nM; with `CC(C)N1C[C@@H]2C[C@H]1CN2c1ccc(Nc2ncc(-c3cc(C(N)=O)n[nH]3)n3ncnc23)cn1` [Compound 15, 5-{8-(6-((1S,4S)-5-isopropyl-2,5-diazabicyclo[2.2.1]heptan-2-yl)pyridin-3-ylamino)-[1,2,4]triazolo[1,5-a]pyrazin-5-yl}-1H-pyrazole-3-carboxylic acid amide], above 1000 nM. For `CC(C)(C)N1C[C@@H]2C[C@H]1CN2c1ccc(Nc2ncc(-c3ccc4c(c3)CNC4=O)n3ncnc23)cc1` [Compound 16, 5-{8-(4-((1S,4S)-5-tert-butyl-2,5-diazabicyclo[2.2.1]heptan-2-yl)phenylamino)-[1,2,4]triazolo-[1,5-a]pyrazin-5-yl}-2,3-dihydro-isoindol-1-one], the IC50 was above 1000 nM. Regarding `CC(C)(C)N1C[C@@H]2C[C@H]1CN2c1ccc(Nc2ncc(-c3cc(C(N)=O)n[nH]3)n3ncnc23)cc1` [Compound 17, 5-{8-(4-((1S,4S)-5-tert-butyl-2,5-diazabicyclo[2.2.1]heptan-2-yl)phenyl-amino)-[1,2,4]triazolo[1,5-a]pyrazin-5-yl}-1H-pyrazole-3-carboxylic acid amide], the IC50 is above 1000 nM. Turning to `CC(C)N1C[C@@H]2C[C@H]1CN2c1ccc(Nc2ncc(-c3ccc4c(c3)CNC4=O)n3ncnc23)cn1` [Compound 18, 5-{8-(6-((1S,4S)-5-isopropyl-2,5-diazabicyclo[2.2.1]heptan-2-yl)pyridin-3-ylamino)-[1,2,4]triazolo[1,5-a]pyrazin-5-yl}-2,3-dihydro-isoindol-1-one], the IC50 is above 1000 nM. With `CCOc1cc(-c2cnc(Nc3ccc(N4C[C@@H]5C[C@H]4CN5C(C)C)cc3)c3ncnn23)ccn1` [Compound 19, 5-(2-ethoxypyridin-4-yl)-N-(4-((1S,4S)-5-isopropyl-2,5-diazabicyclo[2.2.1]heptan-2-yl)phenyl)-[1,2,4]triazolo[1,5-a]pyrazin-8-amine] the figure was above 1000 nM. The same measure for `CC(C)N1C[C@@H]2C[C@H]1CN2c1ccc(Nc2ncc(-c3cc[nH]c(=O)c3)n3ncnc23)cc1` [Compound 20, 4-(8-(4-((1S,4S)-5-isopropyl-2,5-diazabicyclo[2.2.1]heptan-2-yl)phenylamino)-[1,2,4]triazolo[1,5-a]pyrazin-5-yl)pyridin-2(1H)-one]: above 1000 nM. The same measure for `CCOC(=O)c1cc(-c2cnc(Nc3ccc(N4C[C@@H]5C[C@H]4CN5C(C)C)cc3)c3ncnn23)[nH]n1` [Compound 21, Ethyl 5-(8-(4-((1S,4S)-5-isopropyl-2,5-diazabicyclo[2.2.1]heptan-2-yl)phenylamino)-[1,2,4]triazolo[1,5-a]pyrazin-5-yl)-1H-pyrazole-3-carboxylate]: above 1000 nM; for `CCOc1cc(-c2cnc(Nc3ccc(N4C[C@@H]5C[C@H]4CN5C(C)C)cc3)c3nccn23)ccn1` [Compound 22, 5-(2-ethoxypyridin-4-yl)-N-(4-((1S,4S)-5-isopropyl-2,5-diazabicyclo[2.2.1]heptan-2-yl)phenyl)imidazo[1,2-a]pyrazin-8-amine]: above 1000 nM. Regarding `CC(C)N1C[C@@H]2C[C@H]1CN2c1ccc(Nc2ncc(-c3noc(C(N)=O)n3)n3ncnc23)cc1` [Compound 23, 3-(8-(4-((1S,4S)-5-isopropyl-2,5-diazabicyclo[2.2.1]heptan-2-yl)phenylamino)-[1,2,4]triazolo[1,5-a]pyrazin-5-yl)-1,2,4-oxadiazole-5-carboxamide], the IC50 is above 1000 nM.

Consider `CC(C)N1C[C@@H]2C[C@H]1CN2c1cccc(Nc2ncc(-c3coc(C(N)=O)c3)n3ncnc23)c1` [Compound 24, 4-(8-(3-((1S,4S)-5-isopropyl-2,5-diazabicyclo[2.2.1]heptan-2-yl)phenylamino)-[1,2,4]triazolo[1,5-a]pyrazin-5-yl)furan-2-carboxamide], for which the IC50 is above 1000 nM.

`CC(C)N1C[C@@H]2C[C@H]1CN2c1cccc(Nc2ncc(-c3coc(C(N)=O)c3)n3ccnc23)c1` [Compound 25, 4-(8-(3-((1S,4S)-5-isopropyl-2,5-diazabicyclo[2.2.1]heptan-2-yl)phenylamino)imidazo[1,2-a]pyrazin-5-yl)furan-2-carboxamide]: the IC50 was above 1000 nM. The same measure for `CC(C)N1C[C@@H]2C[C@H]1CN2c1cccc(Nc2ncc(-c3ccc4c(c3)CNC4=O)n3ncnc23)c1` [Compound 26, 5-(8-(3-((1S,4S)-5-isopropyl-2,5-diazabicyclo[2.2.1]heptan-2-yl)phenylamino)-[1,2,4]triazolo[1,5-a]pyrazin-5-yl)isoindolin-1-one]: above 1000 nM.

The values above are taken from patent publication US8012983B2, “Substituted triazolopyrazines useful for the treatment of degenerative and inflammatory diseases” (Galapagos NV, priority 2008, dated 2011).
